Results taken from BindingDB's records for doi:10.1016/j.bmcl.2004.04.105 (Institut Henri Beaufour, 2004).

Experiments:
[1] = Inhibitory activity against on calpain in C6 glial cells
[2] = Inhibitory activity against on calpain 1 in C6 glial cells

| Structure (SMILES) | IC50 [1] | IC50 [2] |
| --- | --- | --- |
| CC(C)C[C@H](NC(=O)c1ccc2c(c1)Nc1ccccc1S2)C(=O)N[C@H]1CCOC1O (some centres not stated) | 23.5 µM | – |
| CC(=O)OC1OCC[C@@H]1NC(=O)[C@H](CC(C)C)NC(=O)c1ccc2c(c1)Nc1ccccc1S2 (some centres not stated) | – | 13.3 µM |
